Measured values from US20110065734A1, “NOVEL BIFUNCTIONAL COMPOUNDS WHICH INHIBIT PROTEIN KINASES AND HISTONE DEACETYLASES” (4SC AG, priority 2007, published 2011).
Structures can show the parent of a compound that is named as a salt. Where two headings read alike, the source gives them in different places.

Key:
[1] = test system: Cal27 head and neck cancer cell line; test: Cellular cytotoxicity assay (Alamar Blue), Cal27; assay type: cell-based; conditions: Homo sapiens
Method: (§1) The anti-proliferative activity of the chimeric HDAC and protein kinase inhibitory chimeric compounds of the present invention was evaluated using HeLa cervical carcinoma, A549 NSCLC, SKOV3 ovarian carcinoma, Cal27 head and neck cancer, K562 chronic myeloid leukemia (CML) and EOL1 acute hypereosinophilic myeloid leukemia, cell lines. For quantification of cellular proliferation/living cells the Alamar Blue (Resazurin) cell viability assay was applied (O'Brien et al. Eur Biochem. 267, 5421-5426, 2000). In this assay Resazurin is reduced to the fluorescent resorufin by cellular dehydrogenase activity, correlating with viable, proliferating cells. The examples were dissolved as 20 mM solutions in dimethylsulfoxide (DMSO) and subsequently diluted in semi-logarithmic steps. Cell lines were seeded at respective density into 96 well flat bottom plates in a volume of 200 μl per well. 24 h after seeding 1 μl each of the compound dilutions were added into each well of the 96 well plate. Each compound dilution was tested as quadruplicates. Wells containing untreated control cells were filled with […] DMEM medium containing 0.5% v:v DMSO. The cells were then incubated with the substances for 72 h at 37° C. in a humidified atmosphere containing 5% carbon dioxide. To determine the viability of the cells, 20 μl of an Resazurin solution (Sigma; 90 mg/l) were added. After 4 h incubation at 37° C. the fluorescence was measured at an extinction of 544 nm and an emission of 590 nm. For the calculation of the cell viability the emission value from untreated cells was set as 100% viability and the emission rates of treated cells were set in relation to the values of untreated cells. Viabilities were expressed as % values. The corresponding IC50 values of the compounds for cytotoxic activity are determined from the concentration-effect curves by means of non-linear regression.

[2] = molecular target: T1, recombinant HDAC1 isolated from HEK293 cells with heterologous HDAC1 expression (Homo sapiens, UniProt Q13547); test: Fluorimetric rHDAC1 activity assay; assay type: biochemical; conditions: only a range of IC50 over the compounds given; read-out: rHDAC1 inhibitory activity IC50
T1 construct: made in house

A549 NSCLC cell line = test: Cellular cytotoxicity assay (Alamar Blue), A549; assay type: cell-based; conditions: Homo sapiens
Method: as §1

[3] = test system: K562 chronic myeloid leukemia (CML) cell line; test: Cellular cytotoxicity assay (Alamar Blue), K562; assay type: cell-based; conditions: Homo sapiens, 72 h, only a range over the listed compounds is given, read-out: Cytotoxicity towards K562 CML cell line IC50
Method: as §1

[4] = test system: EOL1 acute hypereosinophilic myeloid leukemia cell line; test: Cellular cytotoxicity assay (Alamar Blue), EOL1; assay type: cell-based; conditions: Homo sapiens, 72 h, only a range over the listed compounds is given, read-out: Cytotoxicity towards EOL1 cell line IC50
Method: as §1

PDGFRβ = molecular target: T2, PDGFRβ (Homo sapiens, UniProt P09619); test: Biochemical flash-plate based kinase assay, PDGFRβ; conditions: only a range over the listed compounds is given; read-out: PDGFRβ inhibition IC50
T2 construct: purchased ProQinase, Freiburg/Germany
From the text: (§2) Active kinase proteins were either obtained from commercial suppliers (Abl, PDGF-Rβ ProQinase, Freiburg/Germany; AblT^315I: Millipore/Upstate, Billerica/USA; PKA: InvitroGen/Panvera, Carlsbad/USA) or prepared in-house (KDR, c-terminal kinase domain AA790-1356, HER2 c-terminal kinase domain, EGFR/HER1 C-terminal kinase domain). As substrates, poly-AGKY for Abl, AblT^315I and PDGF-Rβ (#P-1152 Sigma, Munich/Germany), poly-GluTyr for KDR, HER2 and EGFR/HER1 (#P-0275, Sigma, Munich/Germany) or a PKA substrate peptide for PKA (#12-394, Millipore/Upstate, Billerica/USA) were used. Into each well of a 96-well flashplate (#SMP-200 in the case of Abl, Abl T^315I, PDGF-Rβ, EGFR, HER2 and KDR, #SMP-103 in the case of PKA; Perkin Elmer, Waltham/USA) kinase protein was diluted into kinase assay buffer (50 mM HEPES pH 7.5, 3 mM MgCl2, 3 mM MnCl2, 1 mM DTT, 3 μM sodium orthovanadate, 5 μg/ml PEG 8000) containing the appropriate substrate (final volume 89 μl). DMSO vehicle or compounds are added as 1 μl/well prior to the initiation of the kinase reaction by 10 μl 1 mM [^33P]-γATP (4×10^5 cpm). Reactions were allowed to proceed for a time predetermined to be linear on a time versus phosphorylation plot (30 min for PKA, otherwise 80 min) and terminated with the addition of an equal volume of phosphoric acid (2% H3PO4 for 5 minutes). Plates were washed three times with 0.9% w/v NaCl and quantitated by liquid scintillation counting.

[5] = test system: HeLa cervical carcinoma cell line; test: Cellular cytotoxicity assay (Alamar Blue), HeLa; assay type: cell-based; conditions: Homo sapiens, 72 h
Method: as §1

[6] = test system: histone H3 hyperacetylation in HeLa cervical carcinoma cells; test: Cellular histone H3 hyperacetylation assay; assay type: cell-based; conditions: Homo sapiens, 24 h, only a range over the listed compounds is given, read-out: Induction of histone H3 hyperacetylation in HeLa cervical carcinoma cells EC50
From the text: To assess the cellular efficacy of a histone deacetylase inhibitor in vitro, an assay was set up in black clear-bottom 96-well plates and optimized for use on the Cellomics “ArrayScan II” platform for a quantitative calculation of histone acetylation. The protocol uses a polyclonal rabbit antibody, specifically binding to acetylated lysine 1-20 of human histone H3 on fixed cells with an Alexa Fluor 488 labeled goat anti rabbit-IgG used for counterstaining (Beckers et al. Int J. Cancer 121, 1138, 2007).
5×10^3 HeLa cervical carcinoma cells/well (ATCC. CCL-2) in 200 μl Dulbecco rs modified Eagle's medium (DMEM) containing 10% fetal calf serum are seeded at day 1 in Packard view plates and incubated for 24 h under standard cell culture conditions. On day 2, 1 μl test compound (200× final concentration) is added and incubation continued for further 24 h. On day 3, the culture medium is discarded and attached cells fixed for 15 min at room temperature by addition of 100 μl fixation buffer (3.7% v:v formaldehyde in phosphate buffered saline/PBS). After discarding the fixation buffer and one wash with blocking solution (1% BSA, 0.3% Tween 20 in PBS), cells are permeabilized at room temperature by addition of 100 μl/well permeabilization buffer (30.8 mM NaCl, 0.54 mM Na2HPO4, 0.31 mM KH2PO4, 0.1% v:v Triton X-100) for 15 min at room temperature. After discarding the permeabilization buffer and washing twice with 100 μl/well blocking solution at room temperature, the 1st antibody (anti-K^1-20 histone H3 antibody, Calbiochem No. 382158) in blocking solution (50 μl/well) is added. After incubation for 1 h at room temperature, the wells are washed twice at room temperature with 100 μl/well blocking solution before addition of the 2nd antibody (goat-anti-rabbit Alexa Fluor 488; MoBiTec No. A-11008) in blocking solution (50 μl/well). After further incubation for 1 h at room temperature, wells are washed twice with 100 μl/well blocking solution at room temperature. Finally, 100 μl/well PBS are added and image analysis performed on the Cellomics “ArrayScan II” platform. For EC50 determination, the percentage of positive cells showing nuclear fluorescence is determined and EC50 calculation done from concentration-effect curves by means of non-linear regression. For calibration, a positive (reference HDAC inhibitors like SAHA or NVP LBH-589) and a negative control were included.

[7] = test system: SKOV3 ovarian carcinoma cell line; test: Cellular cytotoxicity assay (Alamar Blue), SKOV3; assay type: cell-based; conditions: Homo sapiens
Method: as §1

Bcr-abl T^315I = molecular target: T3, Bcr-abl T^315I (Homo sapiens, UniProt P00519, T315I); test: Biochemical flash-plate based kinase assay, Bcr-abl T315I; conditions: only a range over the listed compounds is given; read-out: Bcr-abl T^315I inhibition IC50
T3 construct: purchased Millipore/Upstate, Billerica/USA
From the text: as §2

Bcr-abl (wt) = molecular target: T4, Bcr-abl (wt) (Homo sapiens, UniProt P00519); test: Biochemical flash-plate based kinase assay, Bcr-abl (wt); conditions: only a range over the listed compounds is given; read-out: Bcr-abl (wt) inhibition IC50
T4 construct: purchased ProQinase, Freiburg/Germany
T4 sequence (P00519 118-553 limits assumed): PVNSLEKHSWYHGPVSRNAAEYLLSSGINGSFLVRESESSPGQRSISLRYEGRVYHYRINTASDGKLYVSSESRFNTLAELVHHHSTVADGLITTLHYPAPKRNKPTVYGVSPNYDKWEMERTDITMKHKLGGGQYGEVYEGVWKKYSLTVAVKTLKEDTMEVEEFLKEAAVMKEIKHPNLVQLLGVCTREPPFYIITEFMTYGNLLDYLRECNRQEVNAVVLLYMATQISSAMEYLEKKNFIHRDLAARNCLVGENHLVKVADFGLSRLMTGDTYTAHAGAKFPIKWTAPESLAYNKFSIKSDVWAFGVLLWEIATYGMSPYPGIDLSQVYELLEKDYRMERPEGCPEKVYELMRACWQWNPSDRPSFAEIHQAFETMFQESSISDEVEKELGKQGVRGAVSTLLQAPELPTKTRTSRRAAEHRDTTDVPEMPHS
From the text: as §2

[8] = CAL-27, 72 h, only a range over the listed compounds is given, read-out: Cytotoxicity towards Cal27 cell line IC50
[9] = A549, 72 h, only a range over the listed compounds is given, read-out: Cytotoxicity towards A549 NSCLC cell line IC50
[10] = only a range over the listed compounds is given, read-out: Cytotoxicity towards HeLa cervical cell line IC50

T1 sequence (Q13547 whole entry): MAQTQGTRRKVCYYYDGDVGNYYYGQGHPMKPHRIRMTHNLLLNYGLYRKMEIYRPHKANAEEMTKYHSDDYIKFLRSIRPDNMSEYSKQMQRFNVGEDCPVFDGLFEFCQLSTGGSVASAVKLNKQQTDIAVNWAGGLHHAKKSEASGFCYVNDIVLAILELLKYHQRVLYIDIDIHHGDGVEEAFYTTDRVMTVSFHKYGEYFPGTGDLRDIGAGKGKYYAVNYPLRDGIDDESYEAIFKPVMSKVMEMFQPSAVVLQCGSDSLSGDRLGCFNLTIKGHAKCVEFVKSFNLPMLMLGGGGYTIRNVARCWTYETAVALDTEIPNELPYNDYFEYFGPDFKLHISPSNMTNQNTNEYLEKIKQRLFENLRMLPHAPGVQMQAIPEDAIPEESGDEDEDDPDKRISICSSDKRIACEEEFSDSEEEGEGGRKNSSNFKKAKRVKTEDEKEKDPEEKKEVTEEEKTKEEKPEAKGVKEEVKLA
T2 sequence (P09619 33-1106): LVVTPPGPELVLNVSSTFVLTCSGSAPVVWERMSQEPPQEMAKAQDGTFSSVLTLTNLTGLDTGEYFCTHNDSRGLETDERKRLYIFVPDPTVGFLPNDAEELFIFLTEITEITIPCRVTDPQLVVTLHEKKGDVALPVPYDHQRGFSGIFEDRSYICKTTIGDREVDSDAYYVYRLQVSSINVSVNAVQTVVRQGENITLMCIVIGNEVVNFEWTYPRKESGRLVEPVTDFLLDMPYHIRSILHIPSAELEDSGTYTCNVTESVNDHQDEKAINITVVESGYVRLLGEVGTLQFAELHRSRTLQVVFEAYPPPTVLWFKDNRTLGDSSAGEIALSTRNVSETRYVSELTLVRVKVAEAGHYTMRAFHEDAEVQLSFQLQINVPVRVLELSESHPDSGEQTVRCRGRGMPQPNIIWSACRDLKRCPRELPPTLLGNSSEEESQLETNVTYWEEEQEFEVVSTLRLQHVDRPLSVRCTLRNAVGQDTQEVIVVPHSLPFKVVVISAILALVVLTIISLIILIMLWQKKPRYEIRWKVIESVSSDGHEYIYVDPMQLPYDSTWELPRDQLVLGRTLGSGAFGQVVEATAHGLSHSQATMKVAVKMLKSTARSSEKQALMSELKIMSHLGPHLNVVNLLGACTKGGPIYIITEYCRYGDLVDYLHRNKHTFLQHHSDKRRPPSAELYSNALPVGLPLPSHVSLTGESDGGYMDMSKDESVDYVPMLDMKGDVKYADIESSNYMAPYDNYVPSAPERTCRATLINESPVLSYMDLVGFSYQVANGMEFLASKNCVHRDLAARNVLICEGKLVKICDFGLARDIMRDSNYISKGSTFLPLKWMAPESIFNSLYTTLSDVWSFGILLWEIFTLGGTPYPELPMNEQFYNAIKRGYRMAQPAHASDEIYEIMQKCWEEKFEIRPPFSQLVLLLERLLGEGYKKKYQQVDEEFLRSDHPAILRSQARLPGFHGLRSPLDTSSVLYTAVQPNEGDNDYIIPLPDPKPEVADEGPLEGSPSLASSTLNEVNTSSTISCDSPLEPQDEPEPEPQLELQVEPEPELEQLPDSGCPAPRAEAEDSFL

Compound	IC50 [2]	IC50 (A549 NSCLC cell line; [9])	melting point	IC50 [3]	IC50 [4]	IC50 (PDGFRβ)	IC50 [5, 10]	also measured
Nc1ccccc1NC(=O)/C=C/c1cccc(-c2ccc3ncnc(Nc4ccc(OCc5cccc(F)c5)c(Cl)c4)c3c2)c1 [[11], (E)-N-(2-aminophenyl)-3-(3-(4-(3-chloro-4-(3-fluorobenzyloxy)phenylamino)-quinazolin-6-yl)phenyl)acrylamide]	≥ 0.0353 µM	≥ 1.1e-06 M	–	–	–	–	–	IC50 [1, 8]: ≥ 2.8e-07 M
Cc1ccc(NC(=O)c2ccc(C(=O)Nc3ccccc3N)s2)cc1Nc1nccc(-c2cccnc2)n1 [[26], N^2-(2-aminophenyl)-N^5-(4-methyl-3-(4-(pyridin-3-yl)pyrimidin-2-ylamino)phenyl)thiophene-2,5-dicarboxamide]	–	≥ 2.95e-06 M	280.5 °C	0.49 to 4.07 µM	0.003 to 0.78 µM	–	–	–
CN(C(=O)c1ccc(C(=O)Nc2ccccc2N)cc1)c1ccc(Cl)c(Nc2nccc(-c3cccnc3)n2)c1 [[35], N-(2-Amino-phenyl)-N′-[4-chloro-3-(4-pyridin-3-yl-pyrimidin-2-ylamino)-phenyl]-N′-methyl-terephthalamide]	0.077 to 1.4 µM	–	–	0.49 to 4.07 µM	0.003 to 0.78 µM	–	–	–
Nc1ccccc1NC(=O)c1ccc(C(=O)Nc2cccc(Nc3nc(-c4cccnc4)cs3)c2)cc1 [[18], N^1-(2-aminophenyl)-N^4-(3-(4-(pyridin-3-yl)thiazol-2-ylamino)phenyl)terephthalamide hydrate]	–	–	–	–	–	2.1 to 71 µM	–	–
Cc1ccc(NC(=O)c2ccc(C(=O)Nc3ccccc3N)cc2)cc1Nc1nccc(-c2cccnc2)n1 [[14], N-(2-Amino-phenyl)-N′-[4-methyl-3-(4-pyridin-3-yl-pyrimidin-2-ylamino)-phenyl]-terephthalamide compound with trifluoroacetic acid]	–	–	–	–	0.003 to 0.78 µM	2.1 to 71 µM	≥ 1.15e-06 M	–
Cc1ccc(NC(=O)c2ccc(C(=O)NO)cc2)cc1Nc1nc(-c2cccnc2)cs1 [[20], N^1-hydroxy-N^4-(4-methyl-3-(4-(pyridin-3-yl)thiazol-2-ylamino)phenyl)terephthalamide]	–	≥ 2.95e-06 M	261 °C	–	–	2.1 to 71 µM	≥ 1.15e-06 M	EC50 [6]: 1.7 to 10 µM
C#Cc1cccc(Nc2ncnc3ccc(S(=O)(=O)n4ccc(/C=C/C(=O)NO)c4)cc23)c1 [[45], 3-{1-[4-(3-Ethynylphenylamino)quinazoline-6-sulfonyl]-1H-pyrrol-3-yl}-N-hydroxy-acrylamide]	–	≥ 2.4e-07 M	–	–	–	–	≥ 5e-07 M	IC50 [1, 8]: 1.6e-07 to 8e-06 M; IC50 ([7]; SK-OV-3, 72 h, only a range over the listed compounds is given, read-out: Cytotoxicity towards SKOV3 cell line IC50): ≥ 5.6e-07 M
Nc1ccccc1NC(=O)c1ccc(C(=O)Nc2cccc(Nc3nc(-c4cccnc4)cs3)c2)cn1 [[24], N^2-(2-aminophenyl)-N^5-(3-(4-(pyridin-3-yl)thiazol-2-ylamino)phenyl)pyridine-2,5-dicarboxamide]	–	–	148 to 150 °C	0.49 to 4.07 µM	–	–	–	–
Cc1ccc(NC(=O)c2ccc(/C=C/C(=O)NO)s2)cc1Nc1nc(-c2cccnc2)cs1 [[33], (E)-5-(3-(hydroxyamino)-3-oxoprop-1-enyl)-N-(4-methyl-3-(4-(pyridin-3-yl)thiazol-2-ylamino)phenyl)thiophene-2-carboxamide]	–	≥ 2.95e-06 M	241.6 °C	–	–	–	–	IC50 (Bcr-abl T^315I): 1 to 34 µM; IC50 (Bcr-abl (wt)): 2 to 39 µM
O=C(/C=C/c1ccc(-c2ccc3ncnc(Nc4ccc(OCc5cccc(F)c5)c(Cl)c4)c3c2)cc1)NO [[8], (E)-3-(4-(4-(3-chloro-4-(3-fluorobenzyl-oxy)phenylamino)quinazolin-6-yl)phen-yl)-N-hydroxyacrylamide hydrochloride monohydrate]	≥ 0.0353 µM	–	–	–	–	–	–	IC50 ([1]; CAL-27, 72 h, read-out: Cytotoxicity towards Cal27 cell line IC50 (M)): ≥ 2.8e-07 M; IC50 (A549 NSCLC cell line; A549, 72 h, read-out: Cytotoxicity towards A549 NSCLC cell line IC50 (M)): ≥ 1.1e-06 M; IC50 ([7]; SK-OV-3, 72 h, read-out: Cytotoxicity towards SKOV3 cell line IC50 (M)): ≥ 1e-06 M; IC50 ([5]; read-out: Cytotoxicity towards HeLa cervical cell line IC50 (M)): 9.1e-07 to 9.4e-06 M
